Results published in article PMC6271415, “Synthesis and Docking Studies of 2,4,6-Trihydroxy-3-Geranylacetophenone Analogs as Potential Lipoxygenase Inhibitor” (Molecules, 2014).
Where two headings read alike, the source gives them in different places.

What was measured:
[1] = target: T1, soybean 15-LOX (Glycine max, UniProt P08170); experiment: In vitro soybean 15-lipoxygenase inhibition assay (spectrophotometric, linoleic acid substrate); type: biochemical; details: for inhibition at 100 µg/mL: read-out: % Inhibition (100 μg/mL)
T1 construct: purchased
T1 sequence (P08170 1-839): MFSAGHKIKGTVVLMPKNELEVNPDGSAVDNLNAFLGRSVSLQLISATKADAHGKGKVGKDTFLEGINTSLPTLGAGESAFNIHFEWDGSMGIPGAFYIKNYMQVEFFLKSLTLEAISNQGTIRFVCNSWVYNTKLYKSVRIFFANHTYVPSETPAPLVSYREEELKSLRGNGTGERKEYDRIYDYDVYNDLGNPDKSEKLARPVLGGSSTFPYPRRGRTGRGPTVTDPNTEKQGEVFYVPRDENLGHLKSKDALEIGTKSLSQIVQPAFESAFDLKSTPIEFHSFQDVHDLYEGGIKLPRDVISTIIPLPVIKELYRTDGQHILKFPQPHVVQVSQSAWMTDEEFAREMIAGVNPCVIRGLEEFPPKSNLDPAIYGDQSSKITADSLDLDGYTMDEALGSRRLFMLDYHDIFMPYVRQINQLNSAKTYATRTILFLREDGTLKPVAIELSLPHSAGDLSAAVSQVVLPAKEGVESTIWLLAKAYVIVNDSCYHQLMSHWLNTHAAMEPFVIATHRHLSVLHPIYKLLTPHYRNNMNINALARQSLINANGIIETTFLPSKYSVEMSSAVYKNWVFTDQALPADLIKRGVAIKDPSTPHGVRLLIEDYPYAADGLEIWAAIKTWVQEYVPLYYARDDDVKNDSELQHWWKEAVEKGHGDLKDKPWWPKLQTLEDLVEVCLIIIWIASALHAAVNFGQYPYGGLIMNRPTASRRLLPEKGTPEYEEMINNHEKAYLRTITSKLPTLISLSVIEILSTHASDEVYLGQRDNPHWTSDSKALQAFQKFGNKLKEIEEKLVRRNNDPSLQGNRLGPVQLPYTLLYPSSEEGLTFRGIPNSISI
Experimental: The target compounds (3a, 3c, 3e–g), intermediates (2a, 2c–g) and the starting material (1) were preliminary evaluated in vitro for their ability to inhibit soybean 15-LOX activity by using spectrophotometric method. Bioactivity screening for soybean 15-LOX inhibition by the target compounds was carried out at 100 μg/mL concentration. […] The bioactivities of the compounds were also compared to tHGA as the parent compound.
In vitro soybean 15-LOX inhibiting activity was measured using spectrophotometric method. In brief, sodium phosphate buffer (160 μL, 100 mM, pH 8.0), test sample (10 μL) and soybean 15-LOX (1.13.11.12) type I-B solution (20 μL, 320 U/well) were mixed and incubated for 15 min at 25 °C. The reaction was then initiated by the addition of the substrate in the form of linoleic acid (10 μL, 0.6 mM) solution. The enzymatic conversion of linoleic acid to form (9Z,11E)-(13S))-13-hydroperoxyoctadeca-9,11-dienoate end product was followed by the change of absorbance measured at 234 nm over a period for 6 min. Test samples and reference standards were dissolved in DMSO. Stock solutions were prepared at concentration 100 μg/mL for pure compounds. […] All reactions were performed in triplicate in a 96-well microtitre plate. The IC50 was calculated from the non-linear regression fitting curve of GraphPad Prism 5. The percentage of inhibition (%) can be calculated from the following formula [17]: [drawing 1] (1)

[2] = test system: 5-LOX; details: cited from earlier work
[3] = target: T1, soybean 15-LOX; set-up: method as in PMID 16644538; details: initial finding; read-out: IC50 against soybean 15-LOX (earlier studies); cited from earlier work
[4] = test system: activated macrophage cells; set-up: method as in PMID 16644538; details: cited from earlier work
[5] = test system: airway hyperresponsiveness to methacholine challenge; set-up: method as in PMID 21958738, PMID 22266348; details: compared with Zileuton; cited from earlier work
[6] = soybean 15-LOX, read-out: IC50 Value (μM) Mean ± SEM
[7] = isolated from Hypericum empetrifolium, read-out: IC50 against 5-LOX
[8] = rounded values printed in Figure 1, read-out: 15-LOX IC50 (Figure 1)

IC50 [1, 6] | inhibition at 100 µg/mL ([1]; 100 μg/mL, mean ± SEM) | Compound | other results
> 100 µM | 19.4 ± 5% | CC(C)C(=O)c1c(O)cc(O)cc1O [2a, 2-Methyl-1-(2,4,6-trihydroxyphenyl)propan-1-one] | 
 |  | 3-geranyl-1-(2'-methylbutanoyl)phloroglucinol [compound 4] | IC50 [2, 7]: 5.8 µM
> 100 µM | 16.9 ± 1.9% | CC(C)(C)C(=O)c1c(O)cc(O)cc1O [2d, 2,2-Dimethyl-1-(2,4,6-trihydroxyphenyl)propane-1-one] | 
> 100 µM | 23.2 ± 2.2% | Oc1cc(O)cc(O)c1 [compound 1, phloroglucinol] | 
 |  | CCCCC(=O)c1c(O)cc(O)cc1O [2e, 1-(2,4,6-Trihydroxyphenyl)pentan-1-one] | IC50 [1]: > 100 µM; inhibition at 100 µg/mL [1]: 24.5 ± 3.2%
23.6 ± 1.7 µM | 94.3 ± 3.4% | CC(=O)c1c(O)cc(O)c(C/C=C(\C)CCC=C(C)C)c1O [tHGA, 2,4,6-trihydroxy-3-geranylacetophenone] | IC50 [3]: 20 µM; IC50 [1, 8]: 23 µM; inhibition of cysteinyl leukotriene secretion [4]: dose-dependent inhibition; efficacy in acute murine asthma model (airway hyperresponsiveness, cellular infiltration, cytokines, cysLT, IgE) [5]: as effective as Zileuton; IC50 ([2]; Figure 1, read-out: 5-LOX IC50): 0.42 µM
15.2 ± 1.2 µM | 90.8 ± 7.6% | CC(C)=CCC/C(C)=C/Cc1c(O)cc(O)c(C(=O)/C=C/c2ccccc2)c1O [3g, (E)-1-(3-((E)-3,7-Dimethylocta-2,6-dienyl)-2,4,6-trihydroxyphenyl)-3-phenylprop-2-en-1-one] | 
> 100 µM |  | O=C(/C=C/c1ccccc1)c1c(O)cc(O)cc1O [2g, (E)-3-Phenyl-1-(2,4,6-trihydroxyphenyl)prop-2-en-1-one] | % Inhibition (100 μg/mL) ([1]; 100 μg/mL, mean ± SEM): did not exhibit any anti-inflammatory activity
> 100 µM | 17.5 ± 3% | O=C(c1c(O)cc(O)cc1O)C1CCCCC1 [2f, Cyclohexyl(2,4,6-trihydroxyphenyl)methanone] | 
10.3 ± 1.5 µM | 90.3 ± 4.4% | CCCCC(=O)c1c(O)cc(O)c(C/C=C(\C)CCC=C(C)C)c1O [3e, (E)-1-(3-(3,7-Dimethylocta-2,6-dienyl)-2,4,6-trihydroxyphenyl)pentan-1-one] | 
27.6 ± 3.6 µM | 90.3 ± 4.1% | CC(C)=CCC/C(C)=C/Cc1c(O)cc(O)c(C(=O)C(C)C)c1O [3a, 3-Geranyl-1-(2'-methylpropanoyl)phloroglucinol] | IC50 [1, 8]: 27 µM; IC50 [2, 7]: 2.2 µM
26.3 ± 1.3 µM | 88.8 ± 5.9% | CC(C)=CCC/C(C)=C/Cc1c(O)cc(O)c(C(=O)C2CCCCC2)c1O [3f, (E)-Cyclohexyl (3-(3,7-dimethylocta-2,6-dienyl)-2,4,6-trihydroxyphenyl)-methanone] | 
12.3 ± 0.6 µM | 94.4 ± 3% | CCC(=O)c1c(O)cc(O)c(C/C=C(\C)CCC=C(C)C)c1O [3c, (E)-1-(3-(3,7-Dimethylocta-2,6-dienyl)-2,4,6-trihydroxyphenyl)propan-1-one] | 

Compound | IC50 [1, 6] | inhibition at 100 µg/mL ([1]; 100 μg/mL, mean ± SEM) | other results
CCC(=O)c1c(O)cc(O)cc1O [2c, 1-(2,4,6-Trihydroxyphenyl)propan-1-one] | > 100 µM |  | % Inhibition (100 μg/mL) ([1]; 100 μg/mL, mean ± SEM): did not exhibit any anti-inflammatory activity
